Measurements taken from PMC4281105 (Journal of medicinal chemistry, 2014).
Like-named read-outs stand apart in the source and are kept apart here. Marks after values point to notes of the source that are not given here.

Key:
[1] = test system: hRSV strain Long; assay: hRSV CPE assay; format: cell-based, human respiratory syncytial virus
[2] = test system: RSV; assay: viral titer; format: cell-based, human respiratory syncytial virus; conditions: for log reduction at 10 µM: human respiratory syncytial virus, read-out: viral titer reduction at 10 µM
[3] = human respiratory syncytial virus, HEp-2, read-out: RSV CPE potency ± standard deviation EC50, HEp-2 cells, hRSV strain Long, 10-point dose response

`COCCCNC(=O)c1ccc(Cn2c(=O)c3ccccc3n(Cc3ccc(C#N)cc3)c2=O)cc1` [Compound 17, 4-((1-(4-Cyanobenzyl)-2,4-dioxo-1,2-dihydroquinazolin-3(4H)-yl)methyl)-N-(3-methoxypropyl)benzamide] was tested, and the EC50 [1, 3] was 1.3 ± 0.2 µM and the log reduction at 10 µM [2] was 4.2.
`COCCCNC(=O)c1ccc(Cn2c(=O)c3ccccc3n(Cc3cccnc3)c2=O)cc1` [Compound 23, 4-((2,4-Dioxo-1-(pyridin-3-ylmethyl)-1,2-dihydroquinazolin-3(4H)-yl)methyl)-N-(3-methoxypropyl)benzamide] showed an EC50 [1, 3] of over 50 µM and a log reduction at 10 µM [2] of 0.9.
`Cc1ccc(Cn2c(=O)n(Cc3ccc(C(=O)NCC4COC4)cc3)c(=O)c3ccccc32)cc1` [Compound 29, 4-((1-(4-Methylbenzyl)-2,4-dioxo-1,2-dihydroquinazolin-3(4H)-yl)methyl)-N-(oxetan-3-ylmethyl)benzamide] gave an EC50 [1, 3] of 0.7 ± 0.1 µM and a log reduction at 10 µM [2] of 5.1.
Compound `COCCCNC(=O)c1ccc(Cn2c(=O)c3ccccc3n(Cc3ccccn3)c2=O)cc1` [Compound 22, 4-((2,4-Dioxo-1-(pyridin-2-ylmethyl)-1,2-dihydroquinazolin-3(4H)-yl)methyl)-N-(3-methoxypropyl)benzamide] has an EC50 [1, 3] of over 50 µM and a log reduction at 10 µM [2] of 0.1.
Work on `Cc1ccc(Cn2c(=O)n(Cc3ccc(C(=O)NC(C)(C)C)cc3)c(=O)c3ccccc32)cc1` [Compound 36, N-(tert-Butyl)-4-((1-(4-methylbenzyl)-2,4-dioxo-1,2-dihydroquinazolin-3(4H)-yl)methyl)benzamide] yielded an EC50 [1, 3] of 0.7 ± 0.03 µM and a log reduction at 10 µM [2] of 5.5.
In the case of `Cc1ccc(Cn2c(=O)n(Cc3ccc(C(=O)N(C)C)cc3)c(=O)c3ccccc32)cc1` [Compound 35, N,N-Dimethyl-4-((1-(4-methylbenzyl)-2,4-dioxo-1,2-dihydroquinazolin-3(4H)-yl)methyl)benzamide], the EC50 [1, 3] is reported as over 50 µM.
In the case of `Cc1ccc(Cn2c(=O)n(Cc3ccc(C(=O)NCCCOC(C)C)cc3)c(=O)c3ccccc32)cc1` [Compound 25, N-(3-Isopropoxypropyl)-4-((1-(4-methylbenzyl)-2,4-dioxo-1,2-dihydroquinazolin-3(4H)-yl)methyl)benzamide], the EC50 [1, 3] is reported as 2 ± 0.2 µM.
Work on `COc1cc(NC(=O)c2ccc(Cn3c(=O)c4ccccc4n(Cc4ccc(C(C)C)cc4)c3=O)cc2)ccn1` [Compound 50, 4-((1-(4-Isopropylbenzyl)-2,4-dioxo-1,2-dihydroquinazolin-3(4H)-yl)methyl)-N-(2-methoxypyridin-4-yl)benzamide] yielded an EC50 [1, 3] of 0.5 ± 0.06 µM.
In the case of `O=C(NCC1COC1)c1ccc(Cn2c(=O)c3ccccc3n(Cc3ccc([N+](=O)[O-])cc3)c2=O)cc1` [Compound 43, 4-((1-(4-Nitrobenzyl)-2,4-dioxo-1,2-dihydroquinazolin-3(4H)-yl)-methyl)-N-(oxetan-3-ylmethyl)benzamide], the EC50 [1, 3] is reported as 1.3 ± 0.05 µM, the “increase in capacity to reduce viral titer over hit 2” value ([2]; 10 µM) is reported as at least 2 log and the log reduction at 10 µM [2] is reported as over 6.2.
In the case of `COCCCNC(=O)c1ccc(Cn2c(=O)c3ccccc3n(Cc3cc(C)on3)c2=O)cc1` [Compound 21, N-(3-Methoxypropyl)-4-((1-((5-methylisoxazol-3-yl)methyl)-2,4-dioxo-1,2 dihydroquinazolin-3(4H)-yl)methyl)benzamide], the EC50 [1, 3] is reported as over 50 µM.
`COCCCNC(=O)c1ccc(Cn2c(=O)c3ccccc3n(Cc3ccccc3Br)c2=O)cc1` [Compound 8, 4-((1-(2-Bromobenzyl)-2,4-dioxo-1,2-dihydroquinazolin-3(4H)-yl)methyl)-N-(3-methoxypropyl)benzamide] gave an EC50 [1, 3] of over 50 µM.
Work on `CC(C)c1ccc(Cn2c(=O)n(Cc3ccc(C(=O)NCC4COC4)cc3)c(=O)c3ccccc32)cc1` [Compound 44, 4-((1-(4-Isopropylbenzyl)-2,4-dioxo-1,2-dihydroquinazolin-3(4H)-yl)methyl)-N-(oxetan-3-ylmethyl)benzamide] yielded an EC50 [1, 3] of 0.4 ± 0.01 µM and a log reduction at 10 µM [2] of 5.8.
`Cc1ccc(Cn2c(=O)n(Cc3ccc(C(=O)Nc4ccccc4)cc3)c(=O)c3ccccc32)cc1` [Compound 38, 4-((1-(4-Methylbenzyl)-2,4-dioxo-1,2-dihydroquinazolin-3(4H)-yl)methyl)-N-phenylbenzamide] showed an EC50 [1, 3] of over 50 µM.
Work on `COCCCNC(=O)c1ccc(Cn2c(=O)c3ccccc3n(Cc3cccc(Br)c3)c2=O)cc1` [Compound 9, 4-((1-(3-Bromobenzyl)-2,4-dioxo-1,2-dihydroquinazolin-3(4H)-yl)methyl)-N-(3-methoxypropyl)benzamide] yielded an EC50 [1, 3] of 2.2 ± 0.1 µM.
For `Cc1ccc(Cn2c(=O)n(Cc3ccc(C(=O)NCc4ccco4)cc3)c(=O)c3ccccc32)cc1` [Compound 40, N-(Furan-2-ylmethyl)-4-((1-(4-methylbenzyl)-2,4-dioxo-1,2-dihydroquinazolin-3(4H)-yl)methyl)benzamide], the EC50 [1, 3] was over 50 µM.
In the case of `CC(C)c1ccc(Cn2c(=O)n(Cc3ccc(C(=O)NCc4ccco4)cc3)c(=O)c3ccccc32)cc1` [Compound 48, N-(Furan-2-ylmethyl)-4-((1-(4-isopropylbenzyl)-2,4-dioxo-1,2-dihydroquinazolin-3(4H)-yl)methyl)benzamide], the EC50 [1, 3] is reported as 1.2 ± 0.1 µM and the log reduction at 10 µM [2] is reported as 2.8.
For `CC(C)(C)c1ccc(Cn2c(=O)n(Cc3ccc(C(=O)NCC4COC4)cc3)c(=O)c3ccccc32)cc1` [Compound 47, 4-((1-(4-tert-Butylbenzyl)-2,4-dioxo-1,2-dihydroquinazolin-3(4H)-yl)methyl)-N-(oxetan-3-ylmethyl)benzamide], the EC50 [1, 3] was 1.6 ± 0.08 µM and the log reduction at 10 µM [2] was 3.4.
In the case of `COCCCCNC(=O)c1ccc(Cn2c(=O)c3ccccc3n(Cc3ccc(C)cc3)c2=O)cc1` [Compound 27, N-(4-Methoxybutyl)-4-((1-(4-methylbenzyl)-2,4-dioxo-1,2-dihydroquinazolin-3(4H)-yl)methyl)benzamide], the EC50 [1, 3] is reported as 0.8 ± 0.05 µM and the log reduction at 10 µM [2] is reported as 2.1.
`COCCCNC(=O)c1ccc(Cn2c(=O)c3ccccc3n(Cc3ccc(Cl)cc3)c2=O)cc1` [Compound 13, 4-((1-(4-Chlorobenzyl)-2,4-dioxo-1,2-dihydroquinazolin-3(4H)-yl)methyl)-N-(3-methoxypropyl)benzamide] showed an EC50 [1, 3] of 6.7 ± 1.9 µM and a log reduction at 10 µM [2] of 3.1.
Work on `Cc1ccc(Cn2c(=O)n(Cc3ccc(C(=O)NCc4ccccc4)cc3)c(=O)c3ccccc32)cc1` [Compound 39, N-Benzyl-4-((1-(4-methylbenzyl)-2,4-dioxo-1,2-dihydroquinazolin-3(4H)-yl)methyl)benzamide] yielded an EC50 [1, 3] of over 50 µM.
`COCCCNC(=O)c1ccc(Cn2c(Cc3cccc(C(C)C)c3)nc3ccccc3c2=O)cc1` [Compound 51, 4-((2-(3-Isopropylbenzyl)-4-oxoquinazolin-3(4H)-yl)methyl)-N-(3-methoxypropyl) benzamide] gave an EC50 ([1]; read-out: RSV CPE potency ± standard deviation EC50, HEp-2 cells, hRSV strain Long, 10-point dose response) of over 50 µM.
`COCCCNC(=O)c1ccc(Cn2c(=O)c3ccccc3n(Cc3ccc([N+](=O)[O-])cc3)c2=O)cc1` [Compound 15, N-(3-Methoxypropyl)-4-((1-(4-nitrobenzyl)-2,4-dioxo-1,2-dihydroquinazolin-3(4H)-yl)methyl)benzamide] was tested, and the EC50 [1, 3] was 0.5 ± 0.05 µM, the EC50 ([1]; human respiratory syncytial virus, RSV CPE, as given in abstract) was 0.3 to 0.5 µM and the “viral titer reduction at 10 µM” value ([2]; compound at 10 µM) was 5.6 ^f log. The log reduction at 10 µM [2] was 5.6.
`Cc1ccc(Cn2c(=O)n(Cc3ccc(C(=O)N4CCOCC4)cc3)c(=O)c3ccccc32)cc1` [Compound 31, 1-(4-Methylbenzyl)-3-(4-(morpholine-4-carbonyl)benzyl)-quinazoline-2,4(1H,3H)-dione] gave an EC50 [1, 3] of over 50 µM.
`Cc1ccc(Cn2c(=O)n(Cc3ccc(C(=O)N4CCCC4)cc3)c(=O)c3ccccc32)cc1` [Compound 32, 1-(4-Methylbenzyl)-3-(4-(pyrrolidine-1-carbonyl)benzyl)-quinazoline-2,4(1H,3H)-dione] showed an EC50 [1, 3] of over 50 µM.
Compound `Cc1ccc(Cn2c(=O)n(Cc3ccc(C(=O)NCCCN(C)C)cc3)c(=O)c3ccccc32)cc1` [Compound 26, N-(3-(Dimethylamino)propyl)-4-((1-(4-methylbenzyl)-2,4-dioxo-1,2-dihydroquinazolin-3(4H)-yl)methyl)benzamide] has an EC50 [1, 3] of 9.5 ± 0.4 µM.
`CNC(=O)c1ccc(Cn2c(=O)c3ccccc3n(Cc3ccc(C)cc3)c2=O)cc1` [Compound 34, N-Methyl-4-((1-(4-methylbenzyl)-2,4-dioxo-1,2-dihydroquinazolin-3(4H)-yl)methyl)benzamide] gave an EC50 [1, 3] of 2.2 ± 0.9 µM.
`Cc1ccc(Cn2c(=O)n(Cc3ccc(C(=O)NC4CCCCC4)cc3)c(=O)c3ccccc32)cc1` [Compound 37, N-Cyclohexyl-4-((1-(4-methylbenzyl)-2,4-dioxo-1,2-dihydroquinazolin-3(4H)-yl)methyl)benzamide] was tested, and the EC50 [1, 3] was over 50 µM.
In the case of `Cc1ccc(Cn2c(=O)n(Cc3ccc(C(=O)N4CCCCC4)cc3)c(=O)c3ccccc32)cc1` [Compound 33, 1-(4-Methylbenzyl)-3-(4-(piperidine-1-carbonyl)benzyl)-quinazoline-2,4(1H,3H)-dione], the EC50 [1, 3] is reported as over 50 µM.
For `COCCNC(=O)c1ccc(Cn2c(=O)c3ccccc3n(Cc3ccc(C)cc3)c2=O)cc1` [Compound 28, N-(2-Methoxyethyl)-4-((1-(4-methylbenzyl)-2,4-dioxo-1,2-dihydroquinazolin-3(4H)-yl)methyl)benzamide], the EC50 [1, 3] was 2.2 ± 1.4 µM.
In the case of `COCCCNC(=O)c1ccc(Cn2c(=O)c3ccccc3n(Cc3ccc(F)cc3)c2=O)cc1` [Compound 12, 4-((1-(4-Fluorobenzyl)-2,4-dioxo-1,2-dihydroquinazolin-3(4H)-yl)-methyl)-N-(3-methoxypropyl)benzamide], the EC50 [1, 3] is reported as 5.1 ± 0.4 µM.
Compound `CCOCCCNC(=O)c1ccc(Cn2c(=O)c3ccccc3n(Cc3ccc(C)cc3)c2=O)cc1` [Compound 24, N-(3-Ethoxypropyl)-4-((1-(4-methylbenzyl)-2,4-dioxo-1,2-dihydroquinazolin-3(4H)-yl)methyl)benzamide] has an EC50 [1, 3] of 1.9 ± 0.2 µM.
`Cc1ccc(Cn2c(=O)n(Cc3ccc(C(=O)Nc4nccs4)cc3)c(=O)c3ccccc32)cc1` [Compound 41, 4-((1-(4-Methylbenzyl)-2,4-dioxo-1,2-dihydroquinazolin-3(4H)-yl)methyl)-N-(thiazol-2-yl)benzamide] was tested, and the EC50 [1, 3] was over 50 µM.
In the case of `COCCCNC(=O)c1ccc(Cn2c(Cc3ccc(C(C)C)cc3)nc3ccccc3c2=O)cc1` [Compound 52, 4-((2-(4-Isopropylbenzyl)-4-oxoquinazolin-3(4H)-yl)methyl)-N-(3-methoxypropyl)benzamide], the EC50 [1, 3] is reported as over 50 µM.
